One test addresses APC11/APC2 (Homo sapiens, UniProt Q9NYG5+Q9UJX6). The test can be described thus: APC-11/APC-2 ligase assay (APC auto ubiquitination). The format is biochemical. The settings on record: APC assay. In outline: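 His-tagged APC was captured on nickel plates with human E1 (5 ng/well), UbcH5c (20 ng/well), APC (100 ng/well) and Flag-ubiquitin (100 ng/well) in a Tris pH 7.6 reaction buffer containing 2.5 mM ATP, for 1 hour at room temperature. Read-out was anti-Flag/HRP chemiluminescence. IC50 was set against a DMSO control, typically from 6 or 8 concentrations.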

Test [1] concerns ICAM-1 expression in A549 cells. Description: ICAM assay (IL-1 induced ICAM-1/CD54 expression in A549 cells). The format is cell-based, human. As to conditions: Homo sapiens, A549, ICAM assay. An outline of the steps: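 A549 cells, 10,000/well, preincubated with compound 1 h at 37° C, then stimulated with IL-1 (4 μl of 25 ng/ml added) for 4 h. Surface ICAM-1 detected by anti-CD54 plus anti-mouse IgG staining for 1 h, luminescent read-out after PBS washes.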

For the next test, the target named is T1, TRAF6/Uev1A/Ubc13 (Homo sapiens, UniProt Q9Y4K3).
T1 sequence (Q9Y4K3 1-522): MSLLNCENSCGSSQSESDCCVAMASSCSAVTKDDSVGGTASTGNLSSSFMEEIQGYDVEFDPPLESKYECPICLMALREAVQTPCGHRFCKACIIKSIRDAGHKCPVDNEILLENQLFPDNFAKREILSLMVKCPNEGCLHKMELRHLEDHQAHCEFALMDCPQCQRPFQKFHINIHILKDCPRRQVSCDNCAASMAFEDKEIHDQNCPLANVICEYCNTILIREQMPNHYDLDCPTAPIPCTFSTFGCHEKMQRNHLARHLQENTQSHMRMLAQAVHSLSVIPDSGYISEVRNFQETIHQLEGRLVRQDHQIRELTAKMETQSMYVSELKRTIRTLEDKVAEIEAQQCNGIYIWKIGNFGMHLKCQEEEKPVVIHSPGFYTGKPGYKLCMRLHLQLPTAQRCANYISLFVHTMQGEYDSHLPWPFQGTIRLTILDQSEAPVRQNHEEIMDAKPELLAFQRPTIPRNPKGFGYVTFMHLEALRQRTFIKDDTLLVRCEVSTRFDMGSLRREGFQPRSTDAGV
Description: TRAF6/Uev1A/Ubc13 plate-based ubiquitin ligase assay. The format is biochemical. In outline:
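Ligase activity was read as luminescence from anti-Flag/HRP detection of Flag-ubiquitin bound to casein-blocked Ni-plates alongside His-ubiquitin after a 1 h room-temperature reaction. Buffer: 62.5 mM Tris pH 7.5, 6.25 mM MgCl2, 1.0 mM DTT, 2 μM ATP; E1, Uev1a/Ubc13 and TRAF6 added last to start. IC50s derived across compound concentrations.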

Chain of APC11/APC2 (Q9NYG5 whole entry): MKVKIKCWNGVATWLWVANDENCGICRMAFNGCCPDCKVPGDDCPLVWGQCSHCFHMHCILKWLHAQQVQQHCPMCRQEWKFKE
Chain of APC11/APC2 (Q9UJX6 whole entry): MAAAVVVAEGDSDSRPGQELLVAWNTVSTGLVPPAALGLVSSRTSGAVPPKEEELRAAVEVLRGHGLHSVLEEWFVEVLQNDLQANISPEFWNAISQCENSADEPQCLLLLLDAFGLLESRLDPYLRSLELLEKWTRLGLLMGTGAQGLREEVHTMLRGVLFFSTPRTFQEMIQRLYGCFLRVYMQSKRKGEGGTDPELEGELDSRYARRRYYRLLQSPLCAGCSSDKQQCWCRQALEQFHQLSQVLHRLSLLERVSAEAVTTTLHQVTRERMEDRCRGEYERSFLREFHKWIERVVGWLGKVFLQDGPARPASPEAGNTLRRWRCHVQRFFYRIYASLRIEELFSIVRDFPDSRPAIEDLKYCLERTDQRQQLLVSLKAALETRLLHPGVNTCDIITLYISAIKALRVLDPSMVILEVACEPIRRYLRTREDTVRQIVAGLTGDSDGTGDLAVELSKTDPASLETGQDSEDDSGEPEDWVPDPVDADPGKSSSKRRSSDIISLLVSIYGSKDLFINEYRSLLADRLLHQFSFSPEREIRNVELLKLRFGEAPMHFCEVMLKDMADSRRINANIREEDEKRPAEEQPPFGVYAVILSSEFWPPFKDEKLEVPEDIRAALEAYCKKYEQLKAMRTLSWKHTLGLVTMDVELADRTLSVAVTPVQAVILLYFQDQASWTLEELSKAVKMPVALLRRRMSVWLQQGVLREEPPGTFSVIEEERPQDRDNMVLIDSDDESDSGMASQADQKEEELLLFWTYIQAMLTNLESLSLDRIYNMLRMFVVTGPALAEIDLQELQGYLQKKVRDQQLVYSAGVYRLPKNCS

Regarding `Cc1ccccc1-c1ccc([N+](=O)[O-])c2nonc12` [compound 439, 4-nitro-7-o-tolyl-2,1,3-benzoxadiazole], the IC50 is no less than 20 µM against APC11/APC2, 1 to 20 µM in test [1] and no less than 20 µM at TRAF6/Uev1A/Ubc13.
For the compound `O=[N+]([O-])c1ccc(-c2ccccc2)c2nonc12` [compound 440, 4-nitro-7-phenyl-2,1,3-benzoxadiazole], the IC50 at APC11/APC2 was 1 to 20 µM; in test [1], no less than 20 µM; against TRAF6/Uev1A/Ubc13 it was no less than 20 µM.
Consider `CC(=O)c1ccc(-c2ccc([N+](=O)[O-])c3nonc23)cc1` [compound 441, 1-(4-[7-nitro-2,1,3-benzoxadiazol-4-yl]phenyl)ethanone], for which the IC50 (at APC11/APC2; in test [1]; against TRAF6/Uev1A/Ubc13) was 1 to 20 µM each time.
`O=[N+]([O-])c1ccc(-c2ccc(F)cc2)c2nonc12` [compound 442, 4-nitro-7-(4-fluorophenyl)-2,1,3-benzoxadiazole]: the IC50 against APC11/APC2 is no less than 20 µM; in test [1], 1 to 20 µM; against TRAF6/Uev1A/Ubc13, 1 to 20 µM.
In the case of `CC(=O)c1cccc(-c2ccc([N+](=O)[O-])c3nonc23)c1` [compound 443, 1-(3-[7-nitro-2,1,3-benzoxadiazol-4-yl]phenyl)ethanone], the IC50 (against APC11/APC2; in test [1]; at TRAF6/Uev1A/Ubc13) was 1 to 20 µM in each case.
In the case of `O=[N+]([O-])c1cccc(-c2ccc([N+](=O)[O-])c3nonc23)c1` [compound 444, 4-nitro-7-(3-nitrophenyl)-2,1,3-benzoxadiazole], the IC50 (against APC11/APC2; in test [1]; against TRAF6/Uev1A/Ubc13) was 1 to 20 µM each time.
With `O=S(=O)(NCCCc1ccccc1)c1ccc(Cl)c2nonc12` [compound 445, 7-chloro-N-(3-phenylpropyl)-2,1,3-benzoxadiazole-4-sulfonamide], the IC50 (on APC11/APC2; in test [1]; on TRAF6/Uev1A/Ubc13) was no less than 20 µM in each case.
With `O=S(=O)(NCc1ccccn1)c1ccc(Cl)c2nonc12` [compound 446, 7-chloro-N-(pyridin-2-ylmethyl)-2,1,3-benzoxadiazole-4-sulfonamide], the figures for the IC50 (on APC11/APC2; in test [1]; on TRAF6/Uev1A/Ubc13) were no less than 20 µM, 1 to 20 µM and no less than 20 µM, respectively.
Turning to `O=S(=O)(NCC1CCCCC1)c1ccc(Cl)c2nonc12` [compound 447, 7-chloro-N-(cyclohexylmethyl)-2,1,3-benzoxadiazole-4-sulfonamide], the IC50 against APC11/APC2 was no less than 20 µM; in test [1], 1 to 20 µM; at TRAF6/Uev1A/Ubc13, no less than 20 µM.
As to `O=S(=O)(NC1CCCCC1)c1ccc(Cl)c2nonc12` [compound 448, 7-chloro-N-(cyclohexyl)-2,1,3-benzoxadiazole-4-sulfonamide], the IC50 against APC11/APC2 was no less than 20 µM; in test [1] it was 1 to 20 µM; against TRAF6/Uev1A/Ubc13, no less than 20 µM.
As for `O=S(=O)(NCC1CC1)c1ccc(Cl)c2nonc12` [compound 449, 7-chloro-N-(cyclopropylmethyl)-2,1,3-benzoxadiazole-4-sulfonamide], the IC50 (against APC11/APC2; in test [1]; against TRAF6/Uev1A/Ubc13) was no less than 20 µM each time.
Consider `COc1ccc2nonc2c1-c1cc(C)cc(C)c1` [compound 450, 4-(3,5-dimethylphenyl)-5-methoxy-2,1,3-benzoxadiazole], for which the IC50 (against APC11/APC2; in test [1]; against TRAF6/Uev1A/Ubc13) was no less than 20 µM in each case.
As for `O=[N+]([O-])c1ccc(C2=CCCCC2)c2nonc12` [compound 451, 4-cyclohexenyl-7-nitro-2,1,3-benzoxadiazole], the values for the IC50 (against APC11/APC2; in test [1]; against TRAF6/Uev1A/Ubc13) were no less than 20 µM, 1 to 20 µM and no less than 20 µM, respectively.
For the compound `Cc1ccc2nsnc2c1S(=O)(=O)Nc1ccccc1F` [compound 452, N-(2-fluorophenyl)-5-methyl-2,1,3-benzthiadiazole-4-sulfonamide], the IC50 (at APC11/APC2; in test [1]; against TRAF6/Uev1A/Ubc13) was no less than 20 µM in each case.
On to `CC(=O)Nc1ccc(-c2ccc(C(C)(C)C)cc2)c2nonc12` [compound 453, N-(7-(4-t-butylphenyl)-2,1,3-benzoxadiazol-4-yl)acetamide], for which the IC50 at APC11/APC2 was 1 to 20 µM; in test [1], no less than 20 µM; at TRAF6/Uev1A/Ubc13, no less than 20 µM.
As to `CC(C)(C)c1ccc(-c2cc3cc(O)ccc3c3nonc23)cc1` [compound 454], the values for the IC50 (against APC11/APC2; in test [1]; at TRAF6/Uev1A/Ubc13) were 1 to 20 µM, no less than 20 µM and no less than 20 µM, respectively.
For the compound `O=S(=O)(NCc1ccncc1)c1ccc(Cl)c2nonc12` [compound 455, 7-chloro-N-(pyridin-4-ylmethyl)-2,1,3-benzoxadiazole-4-sulfonamide], the half-inhibitory concentration (IC50) against APC11/APC2 is no less than 20 µM; in test [1], 1 to 20 µM; on TRAF6/Uev1A/Ubc13 it was no less than 20 µM.
Regarding `O=C1CCCN1CCCNS(=O)(=O)c1ccc(Cl)c2nonc12` [compound 456, 7-chloro-N-(3-[2-oxopyrrolidin-1-yl]propyl)-2,1,3-benzoxadiazole-4-sulfonamide], the IC50 (against APC11/APC2; in test [1]; against TRAF6/Uev1A/Ubc13) was no less than 20 µM each time.
Take `Cc1cccc(-c2cc3nsnc3cc2F)c1C` [compound 457, 5-(2,3-dimethylphenyl)-6-fluoro-2,1,3-benzthiadiazole]: the half-inhibitory concentration (IC50) (against APC11/APC2; in test [1]; at TRAF6/Uev1A/Ubc13) was no less than 20 µM in each case.
As to `Fc1cc2nsnc2cc1-c1ccccc1` [compound 458, 5-fluoro-6-phenyl-2,1,3-benzthiadiazole], the IC50 (at APC11/APC2; in test [1]; against TRAF6/Uev1A/Ubc13) was no less than 20 µM throughout.
Take `Cc1ccc(-c2cc3nsnc3cc2F)cc1C` [compound 459, 5-(3,4-dimethylphenyl)-6-fluoro-2,1,3-benzthiadiazole]: the IC50 (at APC11/APC2; in test [1]; on TRAF6/Uev1A/Ubc13) was no less than 20 µM each time.
In the case of `Fc1cc2nsnc2cc1-c1cccc2c1OCO2` [compound 460, 5-(benzodioxol-4-yl)-6-fluoro-2,1,3-benzthiadiazole], the IC50 (at APC11/APC2; in test [1]; against TRAF6/Uev1A/Ubc13) was no less than 20 µM each time.
As for `Cc1cc(C)cc(-c2cc3nsnc3cc2F)c1` [compound 461, 5-(3,5-dimethylphenyl)-6-fluoro-2,1,3-benzthiadiazole], the IC50 (at APC11/APC2; in test [1]; at TRAF6/Uev1A/Ubc13) was no less than 20 µM throughout.
As for `COc1ccc(-c2cc3nsnc3cc2F)cc1` [compound 462, 5-(4-methoxyphenyl)-6-fluoro-2,1,3-benzthiadiazole], the IC50 (at APC11/APC2; in test [1]; at TRAF6/Uev1A/Ubc13) was no less than 20 µM in each case.
In the case of `COc1ccc(-c2cc3nsnc3cc2F)cc1OC` [compound 463, 5-(3,4-dimethoxyphenyl)-6-fluoro-2,1,3-benzthiadiazole], the 50% inhibitory concentration (IC50) (on APC11/APC2; in test [1]; against TRAF6/Uev1A/Ubc13) was no less than 20 µM throughout.
`O=[N+]([O-])c1ccc(-c2ccc(Oc3ccccc3)cc2)c2nonc12` [compound 464, 4-nitro-7-(4-phenoxyphenyl)-2,1,3-benzoxadiazole]: the IC50 (on APC11/APC2; in test [1]; on TRAF6/Uev1A/Ubc13) was 1 to 20 µM each time.
`COc1ccc(-c2ccc([N+](=O)[O-])c3nonc23)cc1OC` [compound 465, 4-(3,4-dimethoxyphenyl)-7-nitro-2,1,3-benzoxadiazole]: the figures for the half-maximal inhibitory concentration (IC50) (against APC11/APC2; in test [1]; on TRAF6/Uev1A/Ubc13) were no less than 20 µM, 1 to 20 µM and no less than 20 µM, respectively.

Broadly, the IC50 is the midpoint of a concentration-inhibition curve. Low readings indicate higher potency, high ones lower potency.
